Patent US20250051290A1, “NOVEL COMPOUND FOR IMPROVING SLEEP OR USE THEREOF” (Ajou University Industry-Academic Cooperation Foundation, priority 2021, published 2025)

Target: T1, adenosine A1 receptor (Homo sapiens, UniProt P30542)
T1 construct: expressed in transfected cells; cells use mitochondrial aequorin
T1 sequence (P30542 1-326): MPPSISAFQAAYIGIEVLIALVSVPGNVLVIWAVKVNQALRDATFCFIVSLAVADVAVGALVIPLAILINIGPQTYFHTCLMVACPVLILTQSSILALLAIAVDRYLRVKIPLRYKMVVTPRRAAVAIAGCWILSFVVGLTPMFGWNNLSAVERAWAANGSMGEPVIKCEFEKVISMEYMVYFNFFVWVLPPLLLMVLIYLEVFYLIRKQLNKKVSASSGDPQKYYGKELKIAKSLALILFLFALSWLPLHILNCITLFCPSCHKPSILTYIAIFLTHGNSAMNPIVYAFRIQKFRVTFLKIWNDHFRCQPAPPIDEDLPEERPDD
Assay: Adenosine A1 receptor agonistic activity, aequorin calcium luminescence in A1-overexpressing cell line
Type: cell-based
Conditions: for activation at 10 µM: compound concentration 10 μM; for activation at 10 µM / activation at 50 µM: read-out: agonistic effect on A1 receptor, response relative to adenosine as 100%; for activation at 50 µM: compound concentration 50 μM
From the text: The intracellular endoplasmic reticulum has the function of storing calcium ions and releasing them when necessary. It is responsible for managing and maintaining the overall physiological activities of the human body, such as contracting muscles and promoting hormone secretion by releasing calcium ions. This mechanism has been applied as a universal and accurate method to study the activity of G protein-coupled receptors (GPCRs), and the method of measuring calcium ions, which are the final measurement target, has been developed into various methods including fluorescent substances. The present inventors tried to use chemical luminescence through aequorin to evaluate the agonistic efficacy of the compounds subject to development. To this end, a cell line overexpressing an adenosine receptor (adenosine receptor subtype 1, A1), which targets calcium ions released from the intracellular endoplasmic reticulum, was used, and the concentration of calcium ions released instantaneously was measured using a cell function screening system based on the luminescence phenomenon through mitochondrial aequorin.
Cells into which an A1 receptor gene was inserted through transformation were washed with 10 ml of PBS after 48 hours of culture, and then the cells were isolated and centrifuged at 1,000×g for 5 minutes. The precipitated cells were treated with a basic buffer solution (Dulbecco's Modified Eagle's Medium (DMEM)/HAM's F12 without phenol red, with L-glutamate, 15 mM hydroxyethyl piperazine ethane sulfonic acid (HEPES), pH 7.0, 0.1% bovine serum albumin (BSA)), coelenterazine h was added to a concentration of 2×10^6 cells/ml, and then light was blocked. The cells were allowed to react with coelenterazine h using a rotator at room temperature. After four hours of reaction, the reaction mixture was diluted 10 times with a basic buffer solution to adjust the concentration to 2×10^5 cells/ml and allowed to stand for 60 minutes under the same conditions as before.
To confirm the agonistic activity of the novel compounds of the present invention, the previously prepared cells were plated in a 96-well black plate (Corning 3915) containing adenosine ([…]-4.57 nM) at 50 µl/well (5,000 cells/well), and then the resulting signal value was measured. To confirm the calcium signal changing activity (agonistic activity) of the compounds subject to development, the prepared cells were plated in a 96-well plate containing 50 μl/well of the compound sample at 50 μl/well and allowed to react for 30 minutes. Thereafter, 50 μl/well of adenosine (3 μM) was injected to confirm the reaction. The light emitted due to cell activity was measured and recorded using a Mithras 960 MultiLabel Reader. The measured value (area under the curve (AUC) integrated signal) was expressed in relative light units (RLU). To ensure the accuracy of the experimental data, the experiment was performed at at least two concentrations ([…] and 50 μM) with three samples of the same compound, and EC50 values calculated when necessary were compared and analyzed with the values obtained through at least three experiments.
As a result, the results shown in Table 1 below and FIG. 5 were obtained. Each value was obtained by assuming the response of […] adenosine as 100% and converting the ratio into percentage. The greater the value, the greater the agonistic effect.

Structure (SMILES)	activation at 10 µM [%]	activation at 50 µM [%]	EC50 (dose-response, FIG. 5) [µM]
CCNc1nc(N(C)C)c2ccccc2n1 [AR-008, N^2-ethyl-N^4,N^4-dimethylquinazoline-2,4-diamine]	0.4	2.6	
CN(C)c1nc(NCc2ccco2)nc2ccccc12 [AR-002, N^2-(furan-2-ylmethyl)-N^4,N^4-dimethylquinazoline-2,4-diamine]	-1.5	1.3	
CCNc1nc(NCc2ccco2)c2ccccc2n1 [AR-001, N^2-ethyl-N^4-(furan-2-ylmethyl)quinazoline-2,4-diamine]	23.7	246	
c1ccc2c(N3CCCC3)nc(NCc3ccc4c(c3)OCO4)nc2c1 [AR-004, N-(benzo[d][1,3]dioxol-5-ylmethyl)-4-(pyrrolidin-1-yl)quinazolin-2-amine]	-0.7	-0.8	
CN(C)c1nc(NCc2ccc3c(c2)OCO3)nc2ccccc12 [AR-010, N^2-(benzo[d][1,3]dioxol-5-ylmethyl)-N^4,N^4-dimethylquinazoline-2,4-diamine]	2.1	240	
CC(Nc1nc(NCc2ccco2)nc2ccccc12)c1ccccc1 (stereo not drawn) [AR-012, N^2-(furan-2-ylmethyl)-N^4-(1-phenylethyl)quinazoline-2,4-diamine]	-0.6	6.4	
CC(Nc1nc(NCc2ccc3c(c2)OCO3)nc2ccccc12)c1ccccc1 (stereo not drawn) [AR-013, N^2-(benzo[d][1,3]dioxol-5-ylmethyl)-N^4-(1-phenylethyl)quinazoline-2,4-diamine]	0.8	-0.4	
CN(C)c1nc(NC2CC2)nc2ccccc12 [AR-009, N^2-cyclopropyl-N^4,N^4-dimethylquinazoline-2,4-diamine]	-1.2	14.6	
CC(Nc1nc(NC2CC2)nc2ccccc12)c1ccccc1 (stereo not drawn) [AR-003, N^2-cyclopropyl-N^4-(1-phenylethyl)quinazoline-2,4-diamine]	-1.1	3.9	
c1coc(CNc2nc(NCc3ccc4c(c3)OCO4)nc3ccccc23)c1 [AR-007, N^2-(benzo[d][1,3]dioxol-5-ylmethyl)-N^4-(furan-2-ylmethyl)quinazoline-2,4-diamine]	-1.1	12	
c1coc(CNc2nc(NC3CC3)nc3ccccc23)c1 [AR-006, N^2-cyclopropyl-N^4-(furan-2-ylmethyl)quinazoline-2,4-diamine]	170	289	6.95
c1coc(CNc2nc(NCc3ccco3)c3ccccc3n2)c1 [AR-005, N^2,N^4-bis(furan-2-ylmethyl)quinazoline-2,4-diamine]	0.2	251	
CCNc1nc(NC(C)c2ccccc2)c2ccccc2n1 (stereo not drawn) [AR-011, N^2-ethyl-N^4-(1-phenylethyl)quinazoline-2,4-diamine]	-0.4	42.8	

More lines, now with the values ahead:

activation at 10 µM [%]	activation at 50 µM [%]	EC50 (dose-response, FIG. 5) [µM]	Structure (SMILES)
-0.6	0		CN(C)c1nc(NCc2ccco2)nc2cc(O)c(O)cc12 [AR-026, 4-(Dimethylamino)-2-((furan-2-ylmethyl)amino)quinazoline-6,7-diol]
1.7	47.8		CC(Nc1nc(N2CCCC2)c2ccccc2n1)c1ccccc1 (stereo not drawn) [AR-023, N-(1-phenylethyl)-4-(pyrrolidin-1-yl)quinazolin-2-amine]
-0.3	0		COc1cc2nc(NCc3ccco3)nc(N(C)C)c2cc1OC [AR-019, N^2-(furan-2-ylmethyl)-6,7-dimethoxy-N^4,N^4-dimethylquinazoline-2,4-diamine]
-0.5	0		CN(C)c1nc(N2CCCC2)c2ccccc2n1 [AR-022, N,N-dimethyl-4-(pyrrolidin-1-yl)quinazolin-2-amine]
-0.3	-1.1		CCNc1nc(NCc2ccco2)c2cc(O)c(O)cc2n1 [AR-028, 2-(Ethylamino)-4-((furan-2-ylmethyl)amino)quinazoline-6,7-diol]
28.6	219		c1coc(CNc2nc(N3CCCC3)c3ccccc3n2)c1 [AR-015, N-(furan-2-ylmethyl)-4-(pyrrolidin-1-yl)quinazolin-2-amine]
0.3	-0.7		CCNc1nc(N2CCCC2)c2cc(OC)c(OC)cc2n1 [AR-020, N-ethyl-6,7-dimethoxy-4-(pyrrolidin-1-yl)quinazolin-2-amine]
-0.9	25.1		CCNc1nc(N2CCCC2)c2ccccc2n1 [AR-014, N-ethyl-4-(pyrrolidin-1-yl)quinazolin-2-amine]
0.6	0.9		COc1cc2nc(NC3CC3)nc(N3CCCC3)c2cc1OC [AR-017, N-cyclopropyl-6,7-dimethoxy-4-(pyrrolidin-1-yl)quinazolin-2-amine]
1	0		CCNc1nc(NCc2ccco2)c2cc(OC)c(OC)cc2n1 [AR-018, N^2-ethyl-N^4-(furan-2-ylmethyl)-6,7-dimethoxyquinazoline-2,4-diamine]
0.2	1.1		CCNc1nc(N2CCCC2)c2cc(O)c(O)cc2n1 [AR-027, 2-(Ethylamino)-4-(pyrrolidin-1-yl)quinazoline-6,7-diol]
1.8	0.1		c1ccc2c(N3CCCC3)nc(N3CCCC3)nc2c1 [AR-021, 2,4-di(pyrrolidin-1-yl)quinazoline]
-1.6	0.4		Oc1cc2nc(NC3CC3)nc(N3CCCC3)c2cc1O [AR-025, 2-(Cyclopropylamino)-4-(pyrrolidin-1-yl)quinazoline-6,7-diol]
3.7	101		c1ccc2c(N3CCCC3)nc(NC3CC3)nc2c1 [AR-016, N-cyclopropyl-4-(pyrrolidin-1-yl)quinazolin-2-amine]
-0.7	0.1		O=C(NCCNc1nc(N2CCCC2)c2ccccc2n1)c1ccc(O)c(O)c1 [AR-024, 3,4-Dihydroxy-N-(2-((4-(pyrrolidin-1-yl)quinazolin-2-yl)amino)ethyl)benzamide]
